Experimental findings from patent US9023859B2, “Composition and method for treating or preventing skeletal muscle fibrosis” (State of Israel, Ministry of Agriculture, Agricultural …, priority 2007, dated 2015) are described below.

Assay [1] concerns Mdx mice. Kind of assay: Collagen content (Sirius red) and collagen α1(I) gene expression (in situ hybridization) in quadriceps and tibialis muscles. The assay is classed as in vivo. To be noted: I.P. 3 μg/mouse every other day, 4 weeks from 5 weeks of age. The procedure:
Mdx mice were treated either with halofuginone by I.P. injection every other day (3 μg/mouse) starting at 5 weeks of age for 4 weeks, or with saline vehicle. C57B mice were used as controls. At the end of the 4 week period, tibialis anterior (fast) and quadriceps (slow) muscles were removed for evaluation of fibrosis by Sirius red staining for collagen content, and by in situ hybridization of collagen α1(I) gene expression.

For assay [2], the system named is Mdx mice. In words: Effect on fibrosis (collagen by Sirius red, image analysis) in diaphragm, gastrochnemius and tibialis muscles. It is filed as in vivo. The note with it: I.P. 5 μg/mouse every other day; for reduction of collagen levels: diaphragm; for reduction of collagen content: gastrochnemius. The procedure:
Halofuginone was administered by I.P injection to mdx mice (n=7) from 3 weeks of age every other day at a concentration of 5 μg/mouse. The wild type (C57/BL) and mdx mice without halofuginone served as controls. At the age of 7 and 11 weeks the mice were sacrificed and the diaphragm, gastrochnemius and the tibialis were fixed for histology and samples were frozen for further analysis. Sections were stained for collagen by Sirius red and with methyl green as a counter stain. Image analysis using the Image Pro software was performed for statistical evaluation of the effect of halofuginone on collagen content. For the image analysis, images were taken from 3 animals/group and 4 replicates from each animal/tissue. The results are the ratio of red (R) to green color (G).

Assay [3] relates to Mdx mice. In words: Effect on muscle regeneration (diaphragm central nuclei counting). The assay is classed as in vivo, mouse. The note with it: 5 μg or 7.5 μg for 1 or 2 months from 3 weeks of age; dose-dependent. The procedure:
Mdx mice were treated with halofuginone 5 μg or 7.5 μg for 1 or 2 months starting at age of 3 weeks. The untreated mdx mice served as controls. At the end of the experiment, the diaphragms were taken for hematoxyline & eosin staining before central nuclei counting. The results are the mean±SE of 20 photos taken from 3 different mice. Each photo contained approximately 120 fibers

The subject of assay [4] is myostatin gene expression. In words: Myostatin gene expression in fibrotic liver (preliminary experiments). It is filed as in vivo.

Each structure is given as a SMILES string.

Turning to `O=C(CC1NCCC[C@H]1O)Cn1cnc2cc(Br)c(Cl)cc2c1=O` (stereo in doubt) [halofuginone, 7-bromo-6-chloro-3-[3-(3-hydroxy-2-piperidinyl)-2-oxopropyl]-4(3H)-quinazolinone], the “increase in amount of collagen fibers in mdx muscles” value in the assay with Mdx mice [1] (Sirius red) was “almost completely prevented”. For the same compound, the “increase in expression of collagen α1(I) gene in mdx muscles” value in the assay on Mdx mice [1] (in situ hybridization) is “almost completely prevented”. The figures for the “reduction of collagen levels” value in the assay with Mdx mice [2] (7 weeks of age (4 weeks of treatment)) and with Mdx mice [2] (11 weeks of age (8 weeks of treatment)) were 25% and 53%, respectively. Also, the “reduction of collagen content” value is recorded as 25% with Mdx mice [2] (7 weeks of age) and 33% in the assay with Mdx mice [2] (11 weeks of age). In the assay on Mdx mice [2] (tibialis muscle), the “effect on collagen content” value is given as “No effect”. For the same compound, the “number of diaphragm central nuclei” value in the assay on Mdx mice [3] is “major reduction”. Also, in assay [4], the myostatin gene expression result is given as “inhibition”.
